Assay results as given in patent publication US9642889B2, “Macrocyclic inhibitors of Flaviviridae viruses” (Selcia Limited, priority 2012, dated 2017).
Where two headings read alike, the source gives them in different places.

How the values were obtained:
cyclophilin A = cyclophilin A (Homo sapiens, UniProt P62937); assay: Cyclophilin A TR-FRET competitive binding assay; conditions: competition with CsA-Cy5 for His-tagged CypA, two-hour incubation
Method: Cyclophilin A TR-FRET Competitive Binding Assay
Inhibitor potency was measured using a competitive binding assay with a time-resolved fluorescence resonance energy transfer (TR-FRET) readout. […] An IC50 value was calculated using a four-parameter logistic fit.

[1] = test system: Huh-7 HCV replicon cells (1b replicon); assay: anti-HCV activity in Huh-7 cell line harboring a HCV replicon (luciferase readout); assay type: cell-based; conditions: for Replicon 1b % inhibition at 1 μM: 1b replicon, 1 μM compound
[2] = Hepatitis C virus, Huh-7, 72 h, inhibition of viral replication, Huh-7 HCV replicon cells, 3 days, read-out: EC50
[3] = Hepatitis C virus, Huh-7, read-out: Replicon 1b % inhibition at 1 μM, 1b replicon, 1 μM compound
[4] = inhibition of viral replication, Huh-7 HCV replicon cells, 3 days, read-out: EC50

cyclophilin A, sequence (P62937 whole entry, species assumed): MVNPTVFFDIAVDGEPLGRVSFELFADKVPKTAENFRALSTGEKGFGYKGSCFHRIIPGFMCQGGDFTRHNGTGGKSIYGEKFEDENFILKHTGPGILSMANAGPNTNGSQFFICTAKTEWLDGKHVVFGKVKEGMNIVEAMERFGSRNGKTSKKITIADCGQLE

Structure (SMILES) | IC50 (cyclophilin A) [nM] | EC50 [1, 2] [nM] | inhibition at 1 µM [1, 3] [%] | other results
CCC[C@@H]1CCCc2cc3cc(ccc3cn2)[C@@H](C)NC(=O)[C@@H]2CCCN(N2)C(=O)[C@H](C)NC(=O)[C@H](C(C)C)OC1=O [Compound 9] | < 100 | < 1000 | 100 | –
CC1NC(=O)C(C2CC2)OC(=O)C2(C=Cc3ccc4ccc(nc4c3)C(C)NC(=O)C3CCCN(N3)C1=O)CCC(O)C2 (single isomer, unassigned) [Compound 104] | < 100 | – | – | Replicon 1b % inhibition at 1 μM ([1]; 1 µM): 56%; EC50 [1, 4]: < 1000 nM
CC(C)[C@@H]1OC(=O)C2(/C=C/c3ccc4ccc(nc4c3)[C@@H](C)NC(=O)[C@@H]3CCCN(N3)C(=O)[C@H](C)NC1=O)CCS(=O)(=O)CC2 [Compound 106] | – | < 1000 | 95 | –
C[C@@H]1NC(=O)[C@H](C)OC(=O)C(C)(C)/C=C/c2ccc3ccc(nc3c2)[C@@H](C)NC(=O)[C@@H]2CCCN(N2)C1=O [Compound 61] | 101 to 1000 | 1100 to 10000 | 46 | –
CC(C)[C@@H]1OC(=O)C2(/C=C/c3ccc4ccc(nc4c3)[C@@H](C)NC(=O)[C@@H]3CCCN(N3)C(=O)[C@H](C)NC1=O)COCCO2 (single isomer, unassigned) [Compound 43] | < 100 | – | – | Replicon 1b % inhibition at 1 μM [1]: 99%; EC50 [1, 4]: < 1000 nM
CC(C)[C@@H]1OC(=O)C2(/C=C/c3ccc4ccc(nc4c3)[C@@H](C)NC(=O)[C@@H]3CCCN(N3)C(=O)[C@H](C)NC1=O)CCOC2 (stereo partly shown) [Compound 73] | < 100 | < 1000 | 97 | –
CC1NC(=O)C(C2CC2)OC(=O)C2(C=Cc3ccc4ccc(nc4c3)C(C)NC(=O)C3CCCN(N3)C1=O)CCC(O)C2 (single isomer, unassigned) [Compound 103] | < 100 | < 1000 | – | Replicon 1b % inhibition at 1 μM ([1]; 1 µM): 90%
CC(C)[C@@H]1NCC(C)(C)/C=C/c2ccc3ccc(nc3c2)[C@@H](C)OC(=O)[C@@H]2CCCN(N2)C(=O)[C@H](C)NC1=O [Compound 25] | < 100 | < 1000 | 98 | –
CC(C)C(=O)O[C@H]1CC[C@@]2(/C=C/c3ccc4ccc(nc4c3)[C@@H](C)NC(=O)[C@@H]3CCCN(N3)C(=O)[C@H](C)NC(=O)[C@H](C(C)C)OC2=O)CC1 [Compound 80] | < 100 | < 1000 | 99 | –
C[C@@H]1NC(=O)[C@H]([C@@H](C)O)OC(=O)C(C)(C)/C=C/c2ccc3ccc(nc3c2)[C@@H](C)NC(=O)[C@@H]2CCCN(N2)C1=O [Compound 87] | < 100 | < 1000 | 61 | –
CC(C)[C@@H]1OCCCCCc2cc3cc(ccc3cn2)[C@@H](C)OC(=O)[C@@H]2CCCN(N2)C(=O)[C@H](C)NC1=O [Compound 24] | < 100 | < 1000 | 83 | –
CO[C@@H]1CC/C=C/c2cccc(c2)[C@@H](C)NC(=O)[C@@H]2CCCN(N2)C(=O)[C@H](C)NC(=O)[C@H](C(C)C)OC(=O)[C@@H]1C [Compound 1] | < 100 | < 1000 | 97 | –
CC(C)[C@@H]1OC(=O)C(C)(C)/C=C/c2ccc3ccc(nc3c2)CNC(=O)[C@@H]2CCCN(N2)C(=O)[C@H](C)NC1=O [Compound 37] | < 100 | – | – | –
C[C@@H]1NC(=O)[C@H](C2COC2)OC(=O)C(C)(C)/C=C/c2ccc3ccc(nc3c2)[C@@H](C)NC(=O)[C@@H]2CCCN(N2)C1=O [Compound 95] | < 100 | < 1000 | 88 | –
CC1NC(=O)C(C2CC2)OC(=O)C2(C=Cc3ccc4ccc(nc4c3)C(C)NC(=O)C3CCCN(N3)C1=O)CCC(O)C2 (single isomer, unassigned) [Compound 105] | 101 to 1000 | – | – | Replicon 1b % inhibition at 1 μM ([1]; 1 µM): 2%; EC50 [1, 4]: 1100 to 10000 nM
CC(C)[C@@H]1OC(=O)C2(/C=C/c3ccc4ccc(nc4c3)[C@@H](C)NC(=O)[C@@H]3CCCN(N3)C(=O)[C@H](C)NC1=O)CCCCO2 (mixture of isomers) [Compound 49] | < 100 | < 1000 | 100 | –
CC(=O)O[C@H]1CC[C@]2(/C=C/c3ccc4ccc(nc4c3)[C@@H](C)NC(=O)[C@@H]3CCCN(N3)C(=O)[C@H](C)NC(=O)[C@H](C(C)C)OC2=O)CC1 [Compound 112] | < 100 | < 1000 | 100 | –
CC(C)[C@@H]1OC(=O)C(C)(C)/C=C/c2cc3cc(ccc3cn2)[C@@H](C)NC(=O)[C@@H]2CCCN(N2)C(=O)[C@H](C)NC1=O [Compound 69] | – | < 1000 | 100 | –
CC(C)[C@@H]1OC(=O)C2(/C=C/c3ccc4ccc(nc4c3)[C@@H](C)NC(=O)[C@@H]3CCCN(N3)C(=O)[C@H](C)NC1=O)COCCOC2 [Compound 57] | – | < 1000 | 100 | –
CC(C)[C@@H]1OC(=O)C(C)(C)C/C=C/c2cc3cc(ccc3cn2)[C@@H](C)NC(=O)[C@@H]2CCCN(N2)C(=O)[C@H](C)NC1=O [Compound 12] | < 100 | < 1000 | 100 | –

Structure (SMILES) | IC50 (cyclophilin A) [nM] | EC50 [1, 2] [nM] | inhibition at 1 µM [1, 3] [%] | other results
CC(C)[C@@H]1OC(=O)[C@@]2(/C=C/c3ccc4ccc(nc4c3)[C@@H](C)NC(=O)[C@@H]3CCCN(N3)C(=O)[C@H](C)NC1=O)CCOC(C)(C)C2 [Compound 90] | < 100 | < 1000 | 99 | –
CC1/C=C/c2cc3cc(ccc3cn2)[C@@H](C)NC(=O)[C@@H]2CCCN(N2)C(=O)[C@H](C)NC(=O)[C@H](C(C)C)OC(=O)C1C (stereo partly shown) [Compound 11] | < 100 | < 1000 | 96 | –
CC(C)[C@@H]1OC(=O)C(C)(C)/C=C/c2ccc3ccc(nc3c2)[C@@H](C)N(C)C(=O)[C@@H]2CCCN(N2)C(=O)[C@H](C)NC1=O [Compound 47] | < 100 | < 1000 | 100 | –
CC(C)[C@@H]1OCCC/C=C/c2cc3cc(ccc3cn2)[C@@H](C)OC(=O)[C@@H]2CCCN(N2)C(=O)[C@H](C)NC1=O [Compound 23] | < 100 | < 1000 | 97 | –
COC[C@]1(C)/C=C/c2ccc3ccc(nc3c2)[C@@H](C)NC(=O)[C@@H]2CCCN(N2)C(=O)[C@H](C)NC(=O)[C@H](C(C)C)OC1=O [Compound 58] | < 100 | – | – | –
C[C@@H]1NC(=O)[C@H](C2CC2)OC(=O)C2(/C=C/c3ccc4ccc(nc4c3)[C@@H](C)NC(=O)[C@@H]3CCCN(N3)C1=O)COCCOC2 [Compound 93] | < 100 | < 1000 | 98 | –
COC[C@@]1(C)/C=C/c2ccc3ccc(nc3c2)[C@@H](C)NC(=O)[C@@H]2CCCN(N2)C(=O)[C@H](C)NC(=O)[C@H](C(C)C)OC1=O [Compound 36] | < 100 | – | – | –
CC(C)[C@@H]1OC(=O)C2(/C=C/c3ccc4ccc(nc4c3)[C@@H](C)NC(=O)[C@@H]3CCCN(N3)C(=O)[C@H](C)NC1=O)COC(CF)(CF)OC2 [Compound 107] | < 100 | < 1000 | 100 | –
CC1NC(=O)C(C(C)C)OC(=O)C2(/C=C/c3ccc4ccc(nc4c3)C(C)NC(=O)C3CCCN(N3)C1=O)CCC(O)CC2 (single isomer, unassigned) [Compound 75] | – | – | – | Replicon 1b % inhibition at 1 μM ([1]; 1 µM): 100%; EC50 [1, 4]: < 1000 nM
CC(C)[C@H]1C(=O)N[C@@H](C)C(=O)N2CCC[C@H](N2)C(=O)O[C@H](C)c2ccc3cnc(cc3c2)/C=C/C(C)(C)C(=O)N1C [Compound 22] | < 100 | – | – | –
CC1NC(=O)C(C(C)C)OC(=O)C2(/C=C/c3ccc4ccc(nc4c3)C(C)NC(=O)C3CCCN(N3)C1=O)CCC(O)CC2 (single isomer, unassigned) [Compound 76] | – | – | – | Replicon 1b % inhibition at 1 μM ([1]; 1 µM): 69%; EC50 [1, 4]: < 1000 nM
COC[C@@]1(C)/C=C/c2ccc3ccc(nc3c2)[C@@H](C)N(C)C(=O)[C@@H]2CCCN(N2)C(=O)[C@H](C)NC(=O)[C@H](C(C)C)OC1=O [Compound 38] | < 100 | – | – | –
CC(C)[C@@H]1OC(=O)C2(/C=C/c3ccc4ccc(nc4c3)[C@@H](C)NC(=O)[C@@H]3CCCN(N3)C(=O)[C@H](C)NC1=O)CCOCC2 [Compound 88] | – | < 1000 | 100 | –
CC(C)[C@@H]1OC(=O)C(C)(C)/C=C/c2ccc3ccc(nc3c2)[C@@H](C)OC(=O)[C@@H]2CCCN(N2)C(=O)[C@H](C)NC1=O [Compound 19] | < 100 | – | – | –
CC1NC(=O)C(C(C)C)OC(=O)C2(/C=C/c3ccc4ccc(nc4c3)C(C)NC(=O)C3CCCN(N3)C1=O)CCC(O)CC2 (single isomer, unassigned) [Compound 74] | – | < 1000 | – | Replicon 1b % inhibition at 1 μM ([1]; 1 µM): 100%
COC1CCC2(/C=C/c3ccc4ccc(nc4c3)[C@@H](C)NC(=O)[C@@H]3CCCN(N3)C(=O)[C@H](C)NC(=O)[C@H](C(C)C)OC2=O)CC1 (stereo partly shown) [Compound 92] | – | < 1000 | 100 | –
C[C@@H]1NC(=O)[C@H](C2CCC2)OC(=O)C2(/C=C/c3ccc4ccc(nc4c3)[C@@H](C)NC(=O)[C@@H]3CCCN(N3)C1=O)COCOC2 [Compound 64] | – | – | – | EC50 ([1]; Hepatitis C virus, Huh-7, 72 h): < 1000 nM; inhibition at 1 µM ([1]; Hepatitis C virus, Huh-7, read-out: Replicon 1b % inhibition at 1 μM): 100%
CC(C)[C@@H]1OC(=O)C2(/C=C/c3ccc4ccc(nc4c3)[C@@H](C)NC(=O)[C@@H]3CCCN(N3)C(=O)[C@H](C)NC1=O)CN(C(=O)OC(C)(C)C)CCO2 (single isomer, unassigned) [Compound 45] | < 100 | – | – | –
CC1NC(=O)C(C(C)C)OC(=O)C2(/C=C/c3ccc4ccc(nc4c3)C(C)NC(=O)C3CCCN(N3)C1=O)CCC(O)CC2 (single isomer, unassigned) [Compound 77] | – | – | – | Replicon 1b % inhibition at 1 μM ([1]; 1 µM): 56%; EC50 [1, 4]: < 1000 nM
CC(C)[C@@H]1OC(=O)C(C)(C)/C=C/c2ccc3ccc(nc3c2)CN(C)C(=O)[C@@H]2CCCN(N2)C(=O)[C@H](C)NC1=O [Compound 33] | < 100 | – | – | –
